Results taken from the NIST ThermoML archive (doi:10.1021/je060271a).

Conditions: 283.14 K, Liquid, Vibrating tube method

CCCCCCC(=O)OCC(COC(=O)CCCCCC)(COC(=O)CCCCCC)COC(=O)CCCCCC [pentaerythritol tetraheptanoate]
Conditions	mass density [kg/m3]
4946.3 kPa	988.7
4953 kPa	988.7
4959.8 kPa	988.6
4965.7 kPa	988.6
4971.9 kPa	988.7
4978 kPa	988.8
4985.2 kPa	988.8
4991.3 kPa	988.8
4997.3 kPa	988.9
5004.4 kPa	988.8
5010.7 kPa	988.7
5016.9 kPa	988.8
5023.1 kPa	988.7
5031.1 kPa	988.7
5036.4 kPa	988.8
5043.4 kPa	988.8
5049.8 kPa	988.8
5057 kPa	988.9
5063.3 kPa	988.7
5069.3 kPa	988.8
5075.9 kPa	988.8
5083.3 kPa	988.9
5089.6 kPa	988.9
5095.8 kPa	988.8
5103.7 kPa	988.7
5110 kPa	988.8
5116.5 kPa	988.9
5122.9 kPa	988.8
5129 kPa	988.9
5137 kPa	988.9
5192 kPa	988.9
5198.7 kPa	988.9
5206.7 kPa	989
5213.1 kPa	989
5219.7 kPa	988.8
5227.4 kPa	988.8
5234.2 kPa	988.9
5241.1 kPa	988.9
5247.7 kPa	988.9
5255.5 kPa	988.9
5262.2 kPa	988.9
5269 kPa	988.9
5277.1 kPa	989
5284.2 kPa	988.9
5291.1 kPa	988.9
5298.2 kPa	988.9
5306.7 kPa	988.9
5313.1 kPa	988.9
5319.7 kPa	989
5326.9 kPa	988.9
5335.6 kPa	988.9
5342.3 kPa	988.9
5349.4 kPa	988.9
5357.5 kPa	989
5365 kPa	988.9
5371.7 kPa	989
5380.2 kPa	989
5387.5 kPa	989
5394.7 kPa	988.9
5401.6 kPa	989.1
5410.1 kPa	989
5417.6 kPa	989
5424.8 kPa	988.9
5433.5 kPa	989
5440.6 kPa	989.1
5447.7 kPa	989.1
5455.3 kPa	989
5463.1 kPa	989.1
5471.2 kPa	989.1
5478.6 kPa	989
5485.9 kPa	989.1
5494.7 kPa	989.1
5502.5 kPa	989.1
5509.9 kPa	989
5517.5 kPa	989.1
5526.7 kPa	989.1
5534 kPa	989.2
5541.8 kPa	989.2
5549 kPa	989.1
5565.4 kPa	989.1
5582.7 kPa	989.1
5591.5 kPa	989.2
5599.8 kPa	989.1
5607.5 kPa	989.2
5615.5 kPa	989.2
5624.1 kPa	989.1
5632.1 kPa	989.2
5640 kPa	989.1
5649.2 kPa	989.2
5657 kPa	989.3
5665.1 kPa	989.1
5674.3 kPa	989.1
5682.4 kPa	989.1
5690.4 kPa	989.2
5697.6 kPa	989.2
5705.8 kPa	989.1
5714.2 kPa	989.3
5724.3 kPa	989.1
5732.6 kPa	989.2
5739.8 kPa	989.3
5774.2 kPa	989.2
5783.6 kPa	989.3
5791.5 kPa	989.2
5800 kPa	989.2
5810.4 kPa	989.3
5818.7 kPa	989.3
5827 kPa	989.3
5837 kPa	989.3
5845 kPa	989.2
5854.3 kPa	989.2
5862.6 kPa	989.3
5871.8 kPa	989.2
